According to paper PMC4738272 (Scientific Reports, 2016):
Several values for one entry are separate records, joined by “and”; a condition that tells them apart may be missing. Equal values may be shown once. Entries after “also recorded” stand apart in the source; their conditions may differ.

Columns and labels:
[1] = test system: CYP3A4; experiment: Cytochrome p450 3A4 enzymatic activity in liver mono-culture; format: cell-based, human; conditions: ATR 100 μM, 48 hour incubation, data not shown
Procedure: Enzymatic products from 1A1 were run with LDR, and separately, 3A4 were run with LDR containing esterases. Enzymatic activities were finally represented as D-Luciferin picomoles produce in 1 hour by 1 × 10^6 cells.

[2] = test system: neurons; experiment: Neuron electrophysiology recording (patch clamp); format: cell-based, human; conditions: 4-organ co-culture under flow, 48 h drug treatment, day 7, vs control, DOX 5 μM, ATR 100 μM; for Neuronal repetitive and spontaneous firing ability / Neuronal ion currents and firing of stimulated action potentials / Neuronal electrophysiology, overall effect: APAP 5 mM; for Neuronal repetitive and spontaneous firing ability / Neuronal electrophysiology, overall effect: AMAP 5 mM; for Neuronal electrophysiology, overall effect: VPA 2 mM
Source text: Electrophysiological properties of neuron cultures where recorded on the last day of co-culture following a previously described method. Values of firing, repetitive firing, spontaneous firing, inward sodium current, outward potassium current, action potential peak voltage and the resting membrane potential, characterized the mature functionality of neurons in the in vitro system. Drug alterations of the neuronal electrophysiology are discussed in this manuscript.

[3] = test system: Cardiomyocytes; design: method as in Literature; conditions: general toxic effects reported in the literature; ref Literature; cited from earlier work
[4] = test system: Human Skeletal Myofibers; experiment: MTT viability of skeletal muscle module in 4-organ system; conditions: 4-organ co-culture under flow, serum-free medium, 48 h drug treatment, day 7, vs control, DOX 5 μM, ATR 100 μM, VPA 2 mM, APAP 5 mM, AMAP 5 mM
Source text: (§1) The four organ in vitro systems were assembled, on day 0, by placing the corresponding surfaces cell side up in a specific chamber of the housing (liver coverslip into chamber 1, cardiac coverslips and cantilevers into chambers 2 and 4, muscle coverslips into chamber 5, and neuron coverslips into chamber 3 and they were then topped with the serum-free co-culture medium (1X Neurobasal Medium, 1X B27, 1X AB/AM, 1X Glutamax (all from Life Technologies)) before locking the system. Right after assembling, the medium was completely replaced with 4 mL of the co-culture defined serum-free medium and the systems placed on a rocking platform inside an incubator. Platforms were checked every day by inspecting for expected cell morphology inside the system and by replacing medium (1.2 mL total volume) from the two reservoirs (30% of the total volume was replaced) with fresh medium. Drug incubation was initiated on day 5 of the co-culture by addition of the drug through the reservoir closer to the liver chamber (no. 1), allowing a first contact of the drug with the liver. 20 μL of the drug stock solution (or vehicle) to achieve a working concentration in 4 mL of total volume in the platform was utilized. On day 6, after 24 hours of drug incubation, 6 μL of the drug stock solution (or vehicle) was added to the fresh medium exchange volume (1.2 mL). After 48 hour of drug incubation, on day 7, systems were disassembled to test organ functionality that same day. For mono-culture conditions, surfaces remained in a 12-well plated with 1 mL of the co-culture defined serum-free medium maintained by daily replacement of half volume.
(§2) Seven days after the initiation of the co-culture, viability of each organ chamber, except for neurons, was evaluated through an MTT assay. […] Cell viability was measured at 570 nm in a Synergy HT plate reader and KC4 software. The results were expressed as the percentage of cell survival relative to the control (untreated or incubated with vehicle). The neuronal fraction viability was evaluated through morphological analysis throughout the co-culture experiment as the final coverslips were used for patch-clamp electrophysiology. Phase images (10X) where obtained every day of the co-culture. Neuronal viability was evaluated by cell morphology integrity and by cell count from day 1 to day 14.

[5] = test system: iPSc differentiated Cardiomyocytes; experiment: Cardiac beating frequency from video recordings; format: cell-based, human; conditions: 4-organ co-culture under flow, 48 h drug treatment, day 7, vs control; for Cardiomyocyte beating rate (beat frequency), increase: ATR 100 μM, VPA 2 mM, APAP 5 mM; for Cardiomyocyte beating rate (beat frequency), decrease: DOX 5 μM, AMAP 5 mM
Procedure: Seven or fourteen days after the co-culture, cardiac beating frequency was quantified from video recordings of three different areas of each of the cMEA surfaces, where the cardiomyocytes culture where located. Surfaces were located in a 37 °C bath platform containing co-culture medium with 50 mM HEPES on the stage of a Zeiss Axioscope 2FS upright microscope. Beats were counted in a period of 10 s, and the average number of 3 values was obtained. Drug effect was plotted as percentage of change compared to the control conditions.

[6] = test system: Human Skeletal Myofibers; experiment: Myotube stimulated contraction (binary: contracting or not); format: cell-based; conditions: 4-organ co-culture under flow, 48 h drug treatment, day 7, broad-field electrical stimulation, DOX 5 μM, ATR 100 μM, VPA 2 mM, APAP 5 mM, AMAP 5 mM
Procedure: Myotube contraction in coverslips was evaluated after the co-culture was finalized. Individual surfaces were evaluated as previously reported in the group. Drugs effects were quantify in a binary code mode, cells were or were not contracting.

[7] = test system: Neurons; design: method as in Literature; conditions: general toxic effects reported in the literature; ref Literature; cited from earlier work
[8] = test system: Liver; design: method as in Literature; conditions: general toxic effects reported in the literature; ref Literature; cited from earlier work
[9] = test system: HepG2/C3A; experiment: Human Serum Albumin quantification (ELISA), liver fraction of 4-organ system; format: cell-based; conditions: 4-organ co-culture under flow, 48 h drug treatment, vs control, DOX 5 μM, ATR 100 μM, VPA 2 mM, APAP 5 mM, AMAP 5 mM
Procedure: Human Serum Albumin (HSA) production from the liver fraction was tracked throughout the co-culture, by measuring the HSA concentration in the supernatant of the culture as it represents liver protein anabolism. Samples were collected from the exchanged medium (1.2 mL) and stored at −20 °C until analysis. One freeze-thaw cycle occurred before samples were analyzed following manufacturers’ instructions provided in the ELISA Starter Accessory Kit (Bethyl Laboratories Inc, Cat #: E101). Samples were diluted as necessary in sample conjugate/diluent buffer to ensure readings measured within the range of the standard curve. The standard curve was prepared by serial dilutions of human reference serum in sample conjugate/diluent buffer (0–1600 ng/ml).
Final HSA concentrations were calculated in an excel file by first removing the average OD reading measured for blanks from average sample and standard OD readings. Concentrations of standard dilutions were plotted against average OD values measured in XY scatter plots. A standard curve was created by adding an order of 2 polynomial trendline to XY scatter plots and selecting the option to display the equation of the trendline, as well as the R^2 value, on each scatter plot (for ease of analysis HSA sigmoidal curves were split into 3 standard curves with HSA concentration ranges of 0–200 ng/ml, 200–800 ng/ml and […]). Quadratic equations were rearranged to make X (sample HSA concentration) the unknown variant. Y values (OD values) and a/b/c constants generated from trendline equations were inputted into rearranged quadratic equations per assay. HSA concentrations calculated were corrected accordingly for any differences in culture final volumes, sample dilutions during assays and cells number.

[10] = test system: neurons; experiment: Neuronal viability by morphological analysis and cell count in 4-organ system; conditions: 4-organ co-culture under flow, serum-free medium, 48 h drug treatment, day 7, vs control, DOX 5 μM, ATR 100 μM, VPA 2 mM, APAP 5 mM, AMAP 5 mM
Source text: as §1, §2

[11] = test system: Muscle; design: method as in Literature; conditions: general toxic effects reported in the literature; ref Literature; cited from earlier work
[12] = test system: iPSc differentiated Cardiomyocytes; experiment: MTT viability of cardiac module in 4-organ system; conditions: 4-organ co-culture under flow, serum-free medium, 48 h drug treatment, day 7, vs control, DOX 5 μM, ATR 100 μM, VPA 2 mM, APAP 5 mM, AMAP 5 mM
Source text: as §1, §2

[13] = test system: liver; conditions: patients undergoing DOX treatment; cited from earlier work
[14] = test system: HepG2/C3A; experiment: Urea quantification, liver fraction of 4-organ system; format: cell-based, human; conditions: 4-organ co-culture under flow, 48 h drug treatment, vs control, DOX 5 μM, ATR 100 μM, APAP 5 mM, AMAP 5 mM
[15] = test system: neuron; design: method as in PMID 17298386; conditions: 1uM DOX for 24 hours; read-out: Neuron viability drop; cited from earlier work
[16] = test system: skeletal muscle cells; experiment: Bright-field imaging of skeletal muscle morphology in 4-organ system; format: cell-based, human; conditions: 4-organ co-culture under flow, DOX 5 μM, 48 h
Source text: Cell morphology and function were studied each day with an inverted bright-field microscope (Carl Zeiss) using a 10X objective. This working distance allowed the imaging of the cells in the specific surfaces inside the housing. Images of each fraction and systems were collected with an Axio Cam and AxioVision AC software to study morphological or functional changes in the co-culture chamber for each organ.

[17] = cited from earlier work
[18] = test system: HepG2/C3A; experiment: MTT viability of liver module in 4-organ system; format: cell-based, human; conditions: 4-organ co-culture under flow, serum-free medium, 48 h drug treatment, day 7, vs control, DOX 5 μM, ATR 100 μM, VPA 2 mM, APAP 5 mM, AMAP 5 mM
Source text: as §1, §2

| Structure (SMILES) | Neuronal action potential peak voltage and resting membrane potential (DOX also peak ionic currents) [2] | Neuronal electrophysiology, overall effect [2] | Drug effects on cell functionality, Cardiomyocytes, Literature [3] | Drug effects on cell viability, Cardiomyocytes, Literature [3] | Skeletal muscle viability, loss [4] | Skeletal muscle loss of contractile ability (share of cultures in which contraction ceased) [6] | Drug effects on cell functionality, Neurons, Literature [7] | Drug effects on cell viability, Neurons, Literature [7] | Drug effects on cell functionality, Liver, Literature [8] | Drug effects on cell viability, Liver, Literature [8] | HSA (albumin) production, increase [9] | Neuronal cell viability, loss (cell loss by morphology/cell count) [10] | Drug effects on cell functionality, Muscle, Literature [11] | Drug effects on cell viability, Muscle, Literature [11] | Cardiomyocyte viability, loss [12] | also measured |
| --- | --- | --- | --- | --- | --- | --- | --- | --- | --- | --- | --- | --- | --- | --- | --- | --- |
| CC(C)c1c(C(=O)Nc2ccccc2)c(-c2ccccc2)c(-c2ccc(F)cc2)n1CC[C@@H](O)C[C@@H](O)CC(=O)O [Atorvastatin] | changes | Electrophysiology affected | Cardio-protective effect | Cardio-protective effect | 30 ± 15% loss | 50% loss of contractile ability | Toxic at higher concentration( ^**) | Toxic at higher concentration( ^**) | May be compromised | Toxicity reported | not affected | 47 ± 14% loss of cell viability | Compromised | Toxicity reported | No toxic effect observed | CYP3A4 activity induction [1]: 12 fold; Neuronal repetitive and spontaneous firing ability ([2]; listed as ATR): altered ability; also recorded: no repetitively firing cells were observed; Neuronal ion currents and firing of stimulated action potentials ([2]; listed as ATR): typical ion currents and stimulated firing APs; also recorded: regular AP activity was recorded with good sodium and potassium currents; Skeletal muscle viability, loss ([4]; listed as ATR): 30 ± 15%; Cardiomyocyte beating rate (beat frequency), increase [5]: 43 ± 16% increase in beating rate; Cardiomyocyte beating rate (beat frequency), increase ([5]; listed as ATR): 43 ± 16%; Skeletal muscle loss of contractile ability (share of cultures in which contraction ceased) ([6]; listed as ATR): 50%; HSA (albumin) production, increase ([9]; listed as ATR): no change; Neuronal cell viability, loss (cell loss by morphology/cell count) ([10]; listed as ATR): 47 ± 14% and 47 ± 16%; Cardiomyocyte viability, loss ([12]; listed as ATR): no reduction |
| COc1cccc2c1C(=O)c1c(O)c3c(c(O)c1C2=O)C[C@@](O)(C(=O)CO)C[C@@H]3O[C@H]1C[C@H](N)[C@H](O)[C@H](C)O1 [Doxorubicin] | not significantly different | Electrophysiology affected | Compromised | Toxicity reported | Toxicity not observed | 60% loss of contractile ability | Neurologic disturbances ( ^**) | Neurologic disturbances ( ^**) | May be compromised | Toxicity reported | HSA and Urea not affected( ^*) | 33 ± 13% loss of cell viability | Toxicity at higher concentrations | Toxicity at higher concentrations | 65 ± 6% loss | Patients undergoing treatment that show hepatotoxicity [13]: 40%; Urea production, increase [14]: HSA and Urea not affected( ^*); Urea production, increase ([14]; listed as DOX): No effects; cytotoxicity [15]: 25%; Neuronal ion currents and firing of stimulated action potentials [2]: no changes; Neuronal repetitive and spontaneous firing ability ([2]; listed as DOX): not observed after treatment; Cardiomyocyte beating rate (beat frequency), decrease [5]: 47 ± 9% decrease in beating rate; Cardiomyocyte beating rate (beat frequency), decrease ([5]; listed as DOX): 47 ± 9%; Skeletal muscle loss of contractile ability (share of cultures in which contraction ceased) ([6]; listed as DOX): 60%; Muscle morphology [16]: not affected; HSA (albumin) production, increase ([9]; listed as DOX): No effects; Neuronal cell viability, loss (cell loss by morphology/cell count) ([10]; listed as DOX): 33 ± 18% and 33 ± 13%; Patient plasma concentrations typically detected ([17]; patients): 0.5 to 1 µM; Concentration in mitochondria relative to plasma levels ([17]; typically): 100 times; Cardiomyocyte viability, loss ([12]; listed as DOX): 65 ± 6%; Liver (hepatocyte) cell viability, loss [18]: 49 ± 10% loss; Liver (hepatocyte) cell viability, loss ([18]; listed as DOX): 49 ± 10% |
